Test results taken from publication PMC7076388 (Pharmaceutics, 2020).
Entries after “also recorded” stand apart in the source; their conditions may differ. Read-outs that look alike come from different tables or passages of the source.

Tests used:
RAW 264.7 cells [1] = experiment: MTT cell viability, RAW 264.7 macrophages; type: cell-based, murine; settings: for cytotoxic effect on RAW 264.7 viability: up to 100 µM, 24 h
Description: (§1) Adenocarcinoma gastric cells (AGS; Sigma-Aldrich, St. Louis, MO, USA), murine-macrophage cell line (RAW 264.7; American Type Culture Collection, LGC Standards S.L.U., Barcelona, Spain), and human foetal lung fibroblasts (MRC-5; ECACC, Porton Down Salisbury, UK) were cultured as a monolayer at 37 °C in a humidified incubator with 5% carbon dioxide. AGS and RAW 264.7 cells were grown in DMEM, supplemented with 1% streptomycin/penicillin and 10% FBS (Gibco®). MRC-5 cells were grown in MEM, supplemented with 1% streptomycin/penicillin and 10% FBS.
(§2) Cell viability was evaluated by the MTT reduction assay. Cells were cultured in 96-well plates (15,000 cells/well for AGS, 25,000 cells/well for RAW and 20,000 cells/well for MRC-5) and allowed to attach for 24 h. After incubation with compounds for 24 h, MTT (0.5 mg/mL final concentration) was added to each well and the plate was incubated for 75 min at 37 °C. Formazan crystals were dissolved by the addition of a DMSO: isopropanol mixture (3:1) and then quantified spectrophotometrically at 570 nm using a microplate reader (Multiskan Thermo Fisher Scientific Oy, Vantaa, Finland).

[2] = molecular target: T1, LOX from glycine max (soybean) (Glycine max, UniProt P08170); experiment: Lipoxygenase glycine max (soybean) assay; type: biochemical; settings: for LOX inhibition at single concentration: 100 µM; for IC50: dose-response assay, read-out: IC50 for LOX inhibition
T1 construct: purchased Sigma-Aldrich
T1 sequence (P08170 1-839): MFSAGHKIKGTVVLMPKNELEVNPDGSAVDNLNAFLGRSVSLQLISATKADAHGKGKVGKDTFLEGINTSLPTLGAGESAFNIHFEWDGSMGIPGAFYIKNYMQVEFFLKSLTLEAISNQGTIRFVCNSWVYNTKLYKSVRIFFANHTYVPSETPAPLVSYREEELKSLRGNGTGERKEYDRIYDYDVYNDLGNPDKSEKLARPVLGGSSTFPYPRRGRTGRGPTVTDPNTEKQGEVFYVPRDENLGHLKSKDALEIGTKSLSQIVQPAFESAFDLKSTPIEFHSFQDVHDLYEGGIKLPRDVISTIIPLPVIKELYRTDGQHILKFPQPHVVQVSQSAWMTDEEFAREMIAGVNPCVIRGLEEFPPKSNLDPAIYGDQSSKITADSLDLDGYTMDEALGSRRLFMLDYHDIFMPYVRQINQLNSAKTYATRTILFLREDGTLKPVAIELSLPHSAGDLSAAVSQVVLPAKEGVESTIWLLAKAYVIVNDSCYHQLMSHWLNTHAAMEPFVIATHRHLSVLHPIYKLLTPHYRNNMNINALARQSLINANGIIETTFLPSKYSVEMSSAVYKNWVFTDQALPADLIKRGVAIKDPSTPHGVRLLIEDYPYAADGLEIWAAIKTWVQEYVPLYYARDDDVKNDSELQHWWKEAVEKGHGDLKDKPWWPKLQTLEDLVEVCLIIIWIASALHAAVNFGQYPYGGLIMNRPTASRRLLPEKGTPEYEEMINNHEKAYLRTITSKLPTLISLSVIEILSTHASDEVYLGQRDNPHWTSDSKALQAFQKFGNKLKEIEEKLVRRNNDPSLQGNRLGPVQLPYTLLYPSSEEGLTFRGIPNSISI
Description: The inhibitory effect on LOX was assessed in 96-well plates, using a modified version of a previously reported procedure from Pereira et al.. […] After 5 min pre-incubation at room temperature, the reaction was started by addition of linoleic acid substrate (20 µL of a 4.18 mM solution in ethanol). The reaction was monitored at 234 nm using a multiplate reader (Multiskan Thermo Fisher Scientific Oy, Vantaa, Finland), for 3 min.

AGS cells = experiment: MTT cell viability, AGS cells; type: cell-based; settings: 24 h; for toxicity towards AGS cells: 100 µM
Description: as §1, §2

[3] = MTT cell viability, MRC-5 cells; type: cell-based; settings: human, MRC-5 cells (human foetal lung fibroblasts)
Description: as §1, §2

COX-1 [4] = molecular target: T2, COX-1 (Ovis aries, UniProt P05979); experiment: COX fluorescent inhibitor screening assay, COX-1; type: biochemical
T2 construct: purchased Cayman Chemical
T2 sequence (P05979 25-600): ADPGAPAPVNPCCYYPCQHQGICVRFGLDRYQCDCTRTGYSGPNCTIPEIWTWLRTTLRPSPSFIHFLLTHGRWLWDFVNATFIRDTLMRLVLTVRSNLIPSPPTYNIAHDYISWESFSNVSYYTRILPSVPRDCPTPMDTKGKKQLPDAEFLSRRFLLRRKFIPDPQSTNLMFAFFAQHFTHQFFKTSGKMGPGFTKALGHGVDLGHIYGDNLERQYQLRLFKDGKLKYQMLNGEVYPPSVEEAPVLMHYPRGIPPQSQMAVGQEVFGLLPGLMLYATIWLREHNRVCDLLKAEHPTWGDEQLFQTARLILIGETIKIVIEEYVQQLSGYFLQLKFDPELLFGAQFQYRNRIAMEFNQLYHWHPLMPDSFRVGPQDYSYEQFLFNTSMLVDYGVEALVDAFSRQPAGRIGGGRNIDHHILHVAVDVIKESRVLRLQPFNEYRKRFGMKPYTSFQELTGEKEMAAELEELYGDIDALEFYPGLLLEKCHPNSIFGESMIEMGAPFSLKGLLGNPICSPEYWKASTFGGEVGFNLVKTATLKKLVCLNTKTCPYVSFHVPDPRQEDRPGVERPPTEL
Description: (§3) The assay was performed using the COX fluorescent inhibitor screening assay kit (Cayman chemical, MI, USA), with some modifications. […] After 5 min of incubation at room temperature, 5 µL of 10-acetyl-3,7-dihydroxyphenoxazine (ADHP) and 20 µL of a solution containing arachidonic acid (0.5 mM) and KOH (2.5 mM) were added to each well.

COX-2 [5] = molecular target: T3, COX-2 (Homo sapiens, UniProt P35354); experiment: COX fluorescent inhibitor screening assay, COX-2; type: biochemical
T3 construct: purchased Cayman Chemical
T3 sequence (P35354 18-604): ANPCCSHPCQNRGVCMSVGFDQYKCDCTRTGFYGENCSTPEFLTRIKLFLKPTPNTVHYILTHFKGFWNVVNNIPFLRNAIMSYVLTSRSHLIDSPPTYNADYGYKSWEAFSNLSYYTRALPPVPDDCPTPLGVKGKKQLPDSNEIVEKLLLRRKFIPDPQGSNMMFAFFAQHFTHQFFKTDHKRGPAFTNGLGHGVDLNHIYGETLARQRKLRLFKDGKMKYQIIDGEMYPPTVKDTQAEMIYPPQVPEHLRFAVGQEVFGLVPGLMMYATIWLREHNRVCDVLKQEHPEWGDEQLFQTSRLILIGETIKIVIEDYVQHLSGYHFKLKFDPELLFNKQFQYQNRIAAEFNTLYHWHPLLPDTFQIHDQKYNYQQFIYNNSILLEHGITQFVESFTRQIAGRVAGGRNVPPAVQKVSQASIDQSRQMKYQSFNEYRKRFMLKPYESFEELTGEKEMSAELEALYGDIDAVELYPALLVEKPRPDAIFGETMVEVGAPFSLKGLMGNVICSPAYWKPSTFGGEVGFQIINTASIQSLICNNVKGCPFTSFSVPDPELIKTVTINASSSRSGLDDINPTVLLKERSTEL
Description: as §3

[6] = tested on: LPS-induced •NO production in RAW 264.7 cells; experiment: LPS-induced NO production in RAW 264.7 (Griess); type: cell-based, murine; settings: Mus musculus, RAW264.7; RAW 264.7, LPS 1 µg/mL; read-out: IC50 (LPS-dependent •NO production)
Description: RAW 264.7 cells were cultured in 96-well plates (35,000 cells/well) for 24 h and then pre-treated with different concentrations of each compound. After 2 h, LPS was added (final concentration 1 µg/mL) and the plates were incubated at 37 °C, in a humidified atmosphere of 5% CO2. After 22 h, 75 µL of cell supernatant was transferred to a 96-well plate and mixed with 75 µL of Griess reagent (1% sulfanilamide and 0.1% naphthylethylenediamine dihydrochloride in 2% H3PO4). The plate was incubated at room temperature for 10 min in the dark and then the absorbance was read at 540 nm using a microplate reader (Multiskan Thermo Fisher Scientific Oy, Vantaa, Finland).

[7] = molecular target: T4, 20S proteasome isolated from erythrocytes (Homo sapiens, UniProt P28074); experiment: 20S proteasome inhibition (chymotrypsin-like activity); type: biochemical; set-up: purified 20S proteasome isolated from erythrocytes (Enzo Life Sciences); purchased Enzo Life Sciences; host or cells: erythrocytes; settings: 100 µM
Description: Proteasome activity was measured by adapting a method described by Silva et al.. The substrate used to study chymotrypsin-like enzyme activity was Suc-Leu-Leu-Val-Tyr-AMC and the enzyme used was purified 20S proteasome isolated from erythrocytes (Enzo Life Sciences). […] The plate was incubated at 37 °C in the dark for 2 h. […] Lactacystin was used as positive control.

[8] = Solubility in enzymatic assay buffer; type: physicochemical
RAW 264.7 cells [9] = tested on: RAW 264.7 cells; set-up: method as in PMID 30987203; settings: up to 100 µM, 24 h, MTT; cited from earlier work
[10] = tested on: LPS-induced •NO production in RAW 264.7 cells; settings: preliminary study; cited from earlier work
[11] = molecular target: T1, LOX from glycine max (soybean); set-up: method as in PMID 30987203; settings: 100 µM; cited from earlier work
COX-1 [12] = molecular target: T2, COX-1; set-up: method as in PMID 30987203; settings: 25 µM; cited from earlier work
COX-2 [13] = molecular target: T3, COX-2; set-up: method as in PMID 30987203; settings: 25 µM; low selectivity towards COX-2; cited from earlier work
[14] = molecular target: T4, 20S proteasome isolated from erythrocytes; settings: reported in literature; cited from earlier work

| Compound | cytotoxic effect on RAW 264.7 viability (RAW 264.7 cells [1]) | LOX inhibition at single concentration [2] | toxicity towards AGS cells (AGS cells) | IC50 [2] [µM] | also measured |
| --- | --- | --- | --- | --- | --- |
| COc1ccc2cc(C(C)C(=O)NC(CCCCN)C(=O)NC(=Cc3ccccc3)C(=O)O)ccc2c1 [Compound 5, Npx-L-Lys-Z-ΔPhe-OH] | small cytotoxic effect | not able to inhibit LOX activity | slightly cytotoxic |  | viability at 24 h, 100 µM [3]: ~79% |
| COc1ccc2cc(C(C)C(=O)NC(C)C(=O)NC(=Cc3ccccc3)C(=O)O)ccc2c1 [Compound 4, Npx-L-Ala-Z-ΔPhe-OH] | did not show any statistically significant cytotoxic effects | significantly inhibit the LOX enzyme to a similar level to naproxen | not toxic | 55.7 | inhibition at 25 µM (COX-1 [4]): 9%; inhibition at 25 µM (COX-2 [5]): 66% |
| COc1ccc2cc(C(C)C(=O)NC(Cc3c[nH]c4ccccc34)C(=O)NC(=Cc3ccccc3)C(=O)O)ccc2c1 [Compound 3, Npx-L-Trp-Z-ΔPhe-OH] | did not show any statistically significant cytotoxic effects | significantly inhibit the LOX enzyme to a similar level to naproxen | slightly cytotoxic | 55.9 | IC50 [6]: 64.7 µM; remaining activity at 100 µM ([7]; read-out: 20S proteasome enzyme activity remaining): 52% |
| COC(=O)C(=Cc1ccccc1)NC(=O)C(Cc1ccc(O)cc1)NC(=O)C(C)c1ccc2cc(OC)ccc2c1 [Compound 7, Npx-L-Tyr-Z-ΔPhe-OMe] |  |  |  |  | IC50 (RAW 264.7 cells [1]; Mus musculus, RAW264.7, 24 h): 23.1 µM; IC50 (AGS cells; Homo sapiens, AGS): 10.9 µM; viability at 24 h, 100 µM [3]: ~87%; solubility in COX assay medium ([8]; Tris-HCl pH 8.0): insoluble in the assay medium; solubility in LOX assay buffer solution ([8]; phosphate buffer pH 9.0): insolubility in the assay buffer solution; 20S proteasome inhibition [7]: not able to inhibit the 20S proteasome |
| COc1ccc2cc(C(C)C(=O)NC(CCSC)C(=O)NC(=Cc3ccccc3)C(=O)O)ccc2c1 [Compound 6, Npx-L-Met-Z-ΔPhe-OH] | did not show any statistically significant cytotoxic effects | significantly inhibit the LOX enzyme to a similar level to naproxen | not toxic | 60.3 |  |
| CC=C(NC(=O)C(Cc1c[nH]c2ccccc12)NC(=O)C(C)c1ccc2cc(OC)ccc2c1)C(=O)O [Compound 8, Npx-L-Trp-Z-ΔAbu-OH] | did not show any statistically significant cytotoxic effects | significantly inhibit the LOX enzyme to a similar level to naproxen | not toxic | 48.9 | IC50 [6]: 84.4 µM |
| COC(=O)C(=Cc1ccccc1)NC(=O)C(CC(=O)O)NC(=O)C(C)c1ccc2cc(OC)ccc2c1 [Compound 2, Npx-L-Asp-Z-ΔPhe-OMe] |  |  | slightly cytotoxic | 67.4 | cytotoxic effect on RAW 264.7 viability (RAW 264.7 cells [9]): did not show any statistically significant cytotoxic effects; inhibition of LPS-induced production of •NO [10]: modest ability to inhibit; LOX inhibition at single concentration [11]: significantly inhibit the LOX enzyme to a similar level to naproxen; also recorded: high levels of lipoxygenase (LOX) inhibition; COX inhibition level (COX-1) (COX-1 [12]): modest levels of COX inhibition; COX inhibition level (COX-2) (COX-2 [13]): modest levels of COX inhibition |
| COc1ccc2cc([C@H](C)C(=O)O)ccc2c1 [Naproxen, reference compound] |  |  |  |  | inhibition at 25 µM (COX-1 [4]): 42.3%; inhibition at 25 µM (COX-2 [5]): 61.5%; proteasome inhibition [14]: not be an inhibitor of proteasome |
